Measurements reported in patent US20250135020A1, “METHODS FOR TREATING NON-MUSCLE INVASIVE BLADDER CANCER (NMIBC) WITH ANTIBODY DRUG CONJUGATES (ADC) THAT BIND TO 191P4D12 PROTEINS” (priority 2021, published 2025).
Non-standard residues stand in square brackets, D forms with d. Residues, ends and D or L forms follow the SMILES beside them. *: point of attachment. Dolaproine = CO[C@@H]([C@@H]1CCCN1)[C@@H](C)C(=O)O; Dil = CC[C@H](C)[C@H](NC)[C@@H](CC(=O)O)OC; X1 = C[C@@H](N*)[C@@H](O)c1ccccc1; NMeV = CN[C@H](C(=O)O)C(C)C

System: Nectin-4 overexpressing bladder carcinoma cells (UM-UC-3-hNectin-4+)
Test: In vitro cytotoxic activity under conditions that mimic intravesical dosing (Cell TiterGlo)
Assay type: cell-based, human
Conditions: UM-UC-3-hNectin-4+ cells; 2 h exposure then wash out vs 96 h; cell death by Cell TiterGlo
Procedure: To assess cytotoxic activity of EV in vitro under conditions that mimic intravesical dosing, Nectin-4 overexpressing bladder carcinoma cells (UM-UC-3-hNectin-4^+) were exposed to either EV, unconjugated anti-Nectin-4 antibody, unconjugated MMAE, or control ADC (FIG. 2). IV dosing was modeled by exposing the cells for 96 hours. Intravesical dosing was modeled with exposures of 2 and 24 hours followed by test article wash out. Cell death was measured using Cell TiterGlo® (Promega Corporation, Madison, WI, USA).

CC[C@H](C)[C@@H]([C@@H](CC(=O)N1CCC[C@H]1[C@H](OC)[C@@H](C)C(=O)N[C@H](C)[C@@H](O)c1ccccc1)OC)N(C)C(=O)[C@@H](NC(=O)[C@@H](NC)C(C)C)C(C)C [unconjugated MMAE, monomethyl auristatin E] (H-[NMeV]V[Dil][Dolaproine]-X1) was tested. Which “Decrease in potency (EC90) on decreasing the exposure from 96 to 2 hours” value did it give?
Its value is 44 fold.
